From patent US7989589B2, “Compstatin analogs with improved activity” (The Trustees Of The University Of Pennsylvania, priority 2002, dated 2011)

What was measured:
[1] = test system: alternative pathway-mediated erythrocyte lysis; settings: cited from earlier work
[2] = test system: complement activation in human serum; settings: cited from earlier work
[3] = test system: heparin/protamine-induced complement activation; settings: primates; cited from earlier work
[4] = test system: porcine-to-human xenograft; settings: porcine-to-human xenograft perfused with human blood; cited from earlier work
complement activation [5] = settings: cardio-pulmonary bypass, plasmapheresis, dialysis models; cited from earlier work
[6] = test system: activation of the complement system by immunocomplexes (C3 fixation); assay: Complement inhibition assay: inhibition of C3 fixation (C3b/iC3b deposition) to ovalbumin-anti-ovalbumin complexes in normal human plasma; format: biochemical; settings: complement-inhibiting activity
Procedure: Complement activation inhibition was assessed by measuring the inhibition of C3 fixation to ovalbumin—anti-ovalbumin complexes in normal human plasma. Microtiter wells were coated with 50 μl of ovalbumin (10 mg/ml) for 2 hr at 25° C. (overnight at 4° C.). The wells were saturated with 200 μl of 10 mg/ml BSA for 1 hr at 25° C. and then a rabbit anti-ovalbumin antibody was added to form an immunocomplex by which complement can be activated. Thirty microliters of peptides at various concentrations were added directly to each well followed by 30 μl of a 1:80 dilution of human plasma. After 30 min incubation, bound C3b/iC3b was detected using a goat anti-human C3 BRP-conjugated antibody. Color was developed by adding ABTS peroxidase substrate and optical density measured at 405 nm. The concentration of the peptide causing 50% inhibition of C3b/iC3b deposition was taken as the IC50 and used to compare the activities of various peptides.

complement activation [7] = settings: in vivo animal models; cited from earlier work

## CC[C@H](C)[C@H](N)C(=O)N[C@H]1CSSC[C@@H](C(=O)N[C@H](C(N)=O)[C@@H](C)O)NC(=O)[C@H](CCCN=C(N)N)NC(=O)[C@H](Cc2cnc[nH]2)NC(=O)[C@H](Cc2cnc[nH]2)NC(=O)CNC(=O)[C@H](Cc2c[nH]c3ccccc23)NC(=O)[C@H](CC(=O)O)NC(=O)[C@H](CCC(N)=O)NC(=O)[C@H](C(C)C)NC(=O)[C@H](C(C)C)NC1=O [Compstatin]
[1]
  IC50: 12 µM
[2]
  inhibition of complement activation in human serum: inhibit complement activation in human serum
[3]
  inhibition of heparin/protamine-induced complement activation: inhibit heparin/protamine-induced complement activation in primates without significant side effects
[4]
  lifetime of xenograft: prolong the lifetime of a porcine-to-human xenograft perfused with human blood
Complement activation [5]
  inhibition of complement activation in extra-corporeal circuit models: inhibit complement activation in models of cardio-pulmonary bypass, plasmapheresis, and dialysis extra-corporeal circuits

## Ac-ICVWQDWGAHRCdT-COOH [Ac- 4W, 9A13dT —OH]
[6]
  activity compared with another peptide (in words): activity equal to that of peptide SEQ ID NO:5

## sCR1: recombinant form of complement receptor 1 known as soluble complement receptor 1
Complement activation [7]
  suppression of complement activation: suppress complement activation in in vivo animal models
